Data reported in patent publication US6737383B1, “Herbicidal oxadiazolidines” (priority 1999, dated 2004).

Columns and labels:
corn = assay: Test B pre/postemergence corn; format: in vivo, Zea mays
Procedure, shortened: (§1)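 Test chemicals in a non-phytotoxic solvent mixture with surfactant were sprayed preemergence onto planted seeds and postemergence onto plants 2 to 18 cm tall (1- to 4-leaf stage). After twelve to sixteen days in a greenhouse, injury was visually rated against untreated controls from 0 (no effect) to 10 (complete control).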

rape = assay: Test B pre/postemergence rape; format: in vivo, Brassica napus
Procedure, shortened: as §1

wild oat = assay: Test B pre/postemergence wild oat; format: in vivo, Avena fatua
Procedure, shortened: as §1

pigweed = assay: Test B pre/postemergence pigweed; format: in vivo, Amaranthus retroflexus
Procedure, shortened: as §1

soybean = assay: Test B pre/postemergence soybean; format: in vivo, Glycine max
Procedure, shortened: as §1

morningglory = assay: Test B pre/postemergence morningglory; format: in vivo, Ipomoea hederacea
Procedure, shortened: as §1

rice = assay: Test B flood test rice; format: in vivo, Oryza sativa
Procedure, shortened: (§2)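 Read-out is a visual response score from 0 (no effect) to 10 (complete control), assigned by comparison with untreated controls. Treatment was applied at the 2-leaf stage, and plants stayed in the greenhouse for twelve to sixteen days before scoring.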

smallflower flatsedge = assay: Test B flood test smallflower flatsedge; format: in vivo, Cyperus difformis
Procedure, shortened: as §2

giant foxtail = assay: Test B pre/postemergence giant foxtail; format: in vivo, Setaria faberii
Procedure, shortened: as §1

crabgrass = assay: Test B pre/postemergence crabgrass; format: in vivo, Digitaria sanguinalis
Procedure, shortened: as §1

wheat = assay: Test B pre/postemergence wheat; format: in vivo, Triticum aestivum
Procedure, shortened: as §1

duck salad = assay: Test B flood test duck salad; format: in vivo, Heteranthera limosa
Procedure, shortened: as §2

bedstraw = assay: Test B pre/postemergence bedstraw; format: in vivo, Galium aparine
Procedure, shortened: as §1

velvetleaf = assay: Test B pre/postemergence velvetleaf; format: in vivo, Abutilon theophrasti
Procedure, shortened: as §1

purple nutsedge = assay: Test B pre/postemergence purple nutsedge; format: in vivo, Cyperus rotundus
Procedure, shortened: as §1

cocklebur = assay: Test B pre/postemergence cocklebur; format: in vivo, Xanthium strumarium
Procedure, shortened: as §1

[1] = Postemergence, Rate 31 g/ha, visual rating, scale 0 to 10 (0 no effect, 10 complete control)
[2] = Preemergence, Rate 31 g/ha, visual rating, scale 0 to 10 (0 no effect, 10 complete control)
[3] = Preemergence, Rate 62 g/ha, scale of 0 to 10 where 0 is no effect and 10 is complete control
[4] = Rate 16 g/ha, Postemergence, scale 0 to 10, 0 no effect, 10 complete control
[5] = Rate 16 g/ha, Preemergence, scale 0 to 10, 0 no effect, 10 complete control
[6] = Rate 62 g/ha, Postemergence, scale 0 to 10 (0 no effect, 10 complete control)
[7] = Rate 125 g/ha, Postemergence, scale of 0 to 10 where 0 is no effect and 10 is complete control
[8] = Rate 125 g/ha, Preemergence, scale of 0 to 10 where 0 is no effect and 10 is complete control
[9] = Rate 16 g/ha, head printed Pre-emergence (flood test species), scale 0 to 10, 0 no effect, 10 complete control
[10] = Rate 31 g/ha, Pre-emergence section (flood test species), scale 0 to 10
[11] = Rate 62 g/ha, headed Pre-emergence (flood test species), scale 0 to 10 (0 no effect, 10 complete control)
[12] = Rate 125 g/ha, Pre-emergence, flood test species, scale 0 to 10 where 0 is no effect and 10 is complete control
[13] = Rate 250 g/ha, Pre-emergence, flood-test species, scale 0 to 10, 0 is no effect, 10 is complete control
[14] = Rate 500 g/ha, Pre-emergence, flood test species, scale 0 to 10 (0 no effect, 10 complete control)

C=CCCCn1c(=O)on(C(=O)N(c2ccc(F)cc2)C(C)C)c1=O [Compound 291]
Corn plant response rating (corn; [1]): 0 | Corn plant response rating (corn; [2]): 0 | Corn plant response rating (corn; [3]): 0 | Corn plant response rating (corn; [4]): 0 | Corn plant response rating (corn; [5]): 0 | Corn plant response rating (corn; [6]): 0 | Corn plant response rating (corn; [7]): 0 | Corn plant response rating (corn; [8]): 0 | Rape plant response rating (rape; [1]): 0 | Rape plant response rating (rape; [2]): 0 | Rape plant response rating (rape; [3]): 0 | Rape plant response rating (rape; [4]): 0 | Rape plant response rating (rape; [5]): 0 | Rape plant response rating (rape; [6]): 0 | Rape plant response rating (rape; [7]): 1 | Rape plant response rating (rape; [8]): 0 | Wild oats plant response rating (wild oat; [1]): 0 | Wild oats plant response rating (wild oat; [2]): 0 | Wild oats plant response rating (wild oat; [3]): 0 | Wild oats plant response rating (wild oat; [4]): 0 | Wild oats plant response rating (wild oat; [5]): 0 | Wild oats plant response rating (wild oat; [6]): 0 | Wild oats plant response rating (wild oat; [7]): 0 | Redroot pigweed plant response rating (pigweed; [1]): 0 | Redroot pigweed plant response rating (pigweed; [2]): 0 | Redroot pigweed plant response rating (pigweed; [3]): 0 | Redroot pigweed plant response rating (pigweed; [4]): 0 | Redroot pigweed plant response rating (pigweed; [5]): 0 | Redroot pigweed plant response rating (pigweed; [6]): 0 | Redroot pigweed plant response rating (pigweed; [7]): 0 | Redroot pigweed plant response rating (pigweed; [8]): 0 | Soybean plant response rating (soybean; [1]): 1 | Soybean plant response rating (soybean; [2]): 0 | Soybean plant response rating (soybean; [3]): 0 | Soybean plant response rating (soybean; [4]): 1 | Soybean plant response rating (soybean; [5]): 0 | Soybean plant response rating (soybean; [6]): 1 | Soybean plant response rating (soybean; [7]): 3 | Soybean plant response rating (soybean; [8]): 0 | Morningglory plant response rating (morningglory; [1]): 1 | Morningglory plant response rating (morningglory; [2]): 0 | Morningglory plant response rating (morningglory; [3]): 0 | Morningglory plant response rating (morningglory; [4]): 1 | Morningglory plant response rating (morningglory; [5]): 0 | Morningglory plant response rating (morningglory; [6]): 4 | Morningglory plant response rating (morningglory; [7]): 4 | Morningglory plant response rating (morningglory; [8]): 0 | Rice plant response rating (rice; [9]): 0 | Rice plant response rating (rice; [10]): 0 | Rice plant response rating (rice; [11]): 0 | Rice plant response rating (rice; [12]): 2 | Rice plant response rating (rice; [13]): 0 | Rice plant response rating (rice; [14]): 0 | S. Flatsedge plant response rating (smallflower flatsedge; [9]): 0 | S. Flatsedge plant response rating (smallflower flatsedge; [10]): 0 | S. Flatsedge plant response rating (smallflower flatsedge; [11]): 0 | S. Flatsedge plant response rating (smallflower flatsedge; [12]): 0 | S. Flatsedge plant response rating (smallflower flatsedge; [13]): 0 | S. Flatsedge plant response rating (smallflower flatsedge; [14]): 0 | Giant foxtail plant response rating (giant foxtail; [1]): 0 | Giant foxtail plant response rating (giant foxtail; [2]): 8 | Giant foxtail plant response rating (giant foxtail; [3]): 8 | Giant foxtail plant response rating (giant foxtail; [4]): 0 | Giant foxtail plant response rating (giant foxtail; [5]): 7 | Giant foxtail plant response rating (giant foxtail; [6]): 0 | Giant foxtail plant response rating (giant foxtail; [7]): 0 | Giant foxtail plant response rating (giant foxtail; [8]): 9 | Crabgrass plant response rating (crabgrass; [1]): 0 | Crabgrass plant response rating (crabgrass; [2]): 0 | Crabgrass plant response rating (crabgrass; [3]): 0 | Crabgrass plant response rating (crabgrass; [4]): 0 | Crabgrass plant response rating (crabgrass; [5]): 0 | Crabgrass plant response rating (crabgrass; [6]): 0 | Crabgrass plant response rating (crabgrass; [7]): 0 | Crabgrass plant response rating (crabgrass; [8]): 0 | Wheat plant response rating (wheat; [1]): 0 | Wheat plant response rating (wheat; [2]): 0 | Wheat plant response rating (wheat; [3]): 0 | Wheat plant response rating (wheat; [4]): 0 | Wheat plant response rating (wheat; [5]): 0 | Wheat plant response rating (wheat; [6]): 0 | Wheat plant response rating (wheat; [7]): 0 | Wheat plant response rating (wheat; [8]): 0 | Ducksalad plant response rating (duck salad; [9]): 0 | Ducksalad plant response rating (duck salad; [10]): 0 | Ducksalad plant response rating (duck salad; [11]): 0 | Ducksalad plant response rating (duck salad; [12]): 0 | Ducksalad plant response rating (duck salad; [13]): 0 | Ducksalad plant response rating (duck salad; [14]): 0 | Bedstraw plant response rating (bedstraw; [1]): 0 | Bedstraw plant response rating (bedstraw; [2]): 0 | Bedstraw plant response rating (bedstraw; [3]): 0 | Bedstraw plant response rating (bedstraw; [4]): 0 | Bedstraw plant response rating (bedstraw; [5]): 0 | Bedstraw plant response rating (bedstraw; [6]): 0 | Bedstraw plant response rating (bedstraw; [7]): 3 | Bedstraw plant response rating (bedstraw; [8]): 0 | Velvetleaf plant response rating (velvetleaf; [1]): 0 | Velvetleaf plant response rating (velvetleaf; [2]): 0 | Velvetleaf plant response rating (velvetleaf; [3]): 0 | Velvetleaf plant response rating (velvetleaf; [4]): 0 | Velvetleaf plant response rating (velvetleaf; [5]): 0 | Velvetleaf plant response rating (velvetleaf; [6]): 0 | Velvetleaf plant response rating (velvetleaf; [7]): 0 | Velvetleaf plant response rating (velvetleaf; [8]): 0 | Nutsedge plant response rating (purple nutsedge; [1]): 0 | Nutsedge plant response rating (purple nutsedge; [2]): 0 | Nutsedge plant response rating (purple nutsedge; [3]): 0 | Nutsedge plant response rating (purple nutsedge; [4]): 0 | Nutsedge plant response rating (purple nutsedge; [5]): 0 | Nutsedge plant response rating (purple nutsedge; [6]): 0 | Nutsedge plant response rating (purple nutsedge; [7]): 0 | Nutsedge plant response rating (purple nutsedge; [8]): 0 | Cocklebur plant response rating (cocklebur; [1]): 0 | Cocklebur plant response rating (cocklebur; [2]): 0 | Cocklebur plant response rating (cocklebur; [3]): 0 | Cocklebur plant response rating (cocklebur; [4]): 0 | Cocklebur plant response rating (cocklebur; [5]): 0 | Cocklebur plant response rating (cocklebur; [6]): 0 | Cocklebur plant response rating (cocklebur; [7]): 0 | Cocklebur plant response rating (cocklebur; [8]): 0
